{
  "source": "patent US20220105183A1",
  "about": "“MICRO-NANO STRUCTURE FORMED BY SELF-ASSEMBLING ORGANIC SMALL MOLECULE COMPOUND AND USE THEREOF” (Qingdao University of Science and Technology, priority 2018, published 2022)",
  "key": {"HeLa cells": {"tested_on": "HeLa cells", "assay": "Cell photothermal experiment", "type": "cell-based", "description": "HeLa cells were digested from the culture flask with trypsin, centrifuged, added to a DMEM medium containing 10% serum and 1% double antibody, and mixed well. 20 μL of cells were taken and stained with Compound II-1 (20 μM) for 30 minutes. After taking it out, it was centrifuged and rinsed twice with PBS. After centrifuging, 20 μL of culture medium and 20 μL of trypan blue were added. 20 μL was taken from the mixture to the cell count plate and photographed under fluorescence microscope. In the absence of laser irradiation, bright live cells were observed under the microscope, and the cell survival rate was 92%. When irradiated with 808 nm laser for 6 minutes, almost all the blue dead cells were observed under the microscope, and the cell death rate was as high as 100%. HeLa cells were cultured in 96-well plates, 10^4 cells per well, and live/dead staining after 24 h. The cells were irradiated with an 808 nm laser for 6 minutes, and the photographs were observed under a fluorescent microscope. […] It can be seen that the toxicity of the compound itself is extremely small, but its photothermal effect is particularly lethal to cancer cells, and it has bright prospects in the future clinical application of photothermal treatment of cancer. Other compounds of the present invention also have similar photothermal therapeutic effects."}, "[1]": {"assay": "Photodynamic effect test with carboxy-H2DCFDA", "conditions": "10 μM in water with 25 μM carboxy-H2DCFDA, 808 nm laser 10 minutes", "description": "The control group only added carboxy-H2DCFDA compound. Irradiated with 808 nm laser for 10 minutes, and the sample was lowered to room temperature, and its fluorescence emission spectrum (Ex=495 nm, Em=530 nm) was tested. […] It has been verified that other compounds of the present invention have no similar photodynamic effect."}, "[2]": {"assay": "Photoacoustic imaging test in aqueous solution", "type": "physicochemical", "conditions": "5, 10, 20 and 40 μM in water", "description": "In the experimental group, 2.5, 5, 10 and 20 μL of Compound II-1 (concentrations of 5, 10, 20 and 40 μM, respectively) were respectively added to 1 mL of water, and the test solution was placed in the prosthesis for photoacoustic imaging test."}, "4T1 cells [3]": {"tested_on": "4T1 cells", "assay": "Photoacoustic imaging in subcutaneous metastasis model mice", "type": "in vivo, nude mice", "conditions": "200 μL (300 μmoL) tail vein, multispectral photoacoustic tomography", "description": "The left side of 6-week-old female nude mice was injected subcutaneously with […] 4T1 cells to grow the tumor volume to 60 mm^3.\n200 μL II-1 (300 μmoL) was injected into the mice of the experimental group through the tail vein. Monitored with multispectral photoacoustic tomography at different times. […] With the increase of time, until 24 hours, there was a photoacoustic signal at the tumor site."}, "[4]": {"assay": "Photothermal stability, repeated 808 nm irradiation and cooling", "type": "physicochemical", "conditions": "sample No. 3, 20 μM, 808 nm laser 9 minutes, natural cooling, 5 times", "description": "We selected sample No. 3 to test the photothermal stability experiment. As shown in the right figure of FIG. 8, sample No. 3 was irradiated with 808 nm laser for 9 minutes and then the temperature increased from room temperature 30° C. to 62° C., and then allowed to naturally cool down to room temperature, and irradiated with 808 nm laser again for 9 minutes, then naturally cooled down, and repeated for 5 times. […] After 9 minutes of irradiation, the temperature was raised by […], and then returned to room temperature."}, "4T1 cells [5]": {"tested_on": "4T1 cells", "assay": "Photothermal imaging and photothermal treatment in subcutaneous metastasis model mice", "type": "in vivo, nude mice", "description": "In the experimental group, 200 μL of II-1 (300 μmoL) was injected into the mouse through the tail vein, and the tumor site of the mouse was irradiated with an 808 nm laser for 10 minutes, while taking photos with a photothermal imaging instrument.\nThe nude mice were divided into 4 groups. In the first group, 200 μL of II-1 was injected into the mouse through the tail vein, and the tumor site of the mouse was irradiated with an 808 nm laser for 5 minutes. In the second group, 200 μL of II-1 (300 μmol) was injected, no laser irradiation. In the third group, saline was injected and laser irradiated for 5 minutes. In the fourth group, saline was injected, no laser irradiation. The tumor volume of each group of mice was measured daily with a vernier caliper, and the recording was continued for 30 days."}, "T4 cells": {"tested_on": "T4 cells", "assay": "Fluorescence imaging and photothermal treatment in sentinel lymphatic metastasis model mice", "type": "in vivo", "conditions": "for tumor metastasis in the lungs, ink staining: day 20; for temperature at sentinel lymph nodes under laser: 808 nm laser (1.5 W/cm2) 10 minutes", "description": "(§1) Cell preparation: The cells in the culture flask were digested with trypsin and placed in a centrifuge tube for use. The supernatant was discarded by centrifugation and counted. Then a large amount of medium was added and it was placed in a foam box to be taken to the company. The supernatant was removed by centrifugation, and about 3.5 mL of serum-free medium was added. It was prepared for injection.\n(§2) After that, small animal fluorescence imaging and photothermal therapy can be performed.\n(§3) Fluorescence imaging for the small animal was performed on the established mouse metastasis model. Using tail vein injection and intratumoral injection (FIG. 22), fluorescence detection was performed every 1 hour for a total of 5 hours.\n(§4) The mice were treated with photothermal therapy after injection of tumor cells on the right hind foot pad with obvious sentinel lymph nodes (about 20 days). In this experiment, mice were randomly divided into 3 groups, each group 5 mice, saline+laser irradiation control group, intratumoral injection+laser irradiation experimental group and tail vein injection+laser irradiation experimental group, respectively.\n(§5) After photothermal treatment of the mice, the mice were photographed and their weights were recorded every 5 days. […] After the mice were stained with ink on the lungs on day 20, the lungs of the mice were photographed."}, "[6]": {"assay": "Fluorescence imaging and photothermal treatment in sentinel lymphatic metastasis model mice", "type": "in vivo", "description": "as §1, §2, §3, §4, §5"}, "[7]": {"conditions": "Group 1: 200 μL tail vein, 808 nm laser 5 minutes"}, "[8]": {"conditions": "experimental group, 20 days after the experiment"}},
  "data": [
    {"smiles": "CCN1C(=CC=C2CCCC(C=CC3=C(C#N)C(=C(C#N)C#N)OC3(C)C)=C2Cl)C(C)(C)c2ccccc21", "note": "[II-1]", "values": [
      {"measurement": "dead cells, live/dead staining", "setting": "HeLa cells; HeLa in 96-well plates, 808 nm laser 6 minutes", "value": 100, "unit": "%"},
      {"measurement": "live/dead staining, compound only", "setting": "HeLa cells; HeLa in 96-well plates, only the compound added, without laser irradiation", "value": "the cells were all alive"},
      {"measurement": "cell death rate", "setting": "HeLa cells; HeLa, 20 μM for 30 minutes, 808 nm laser 6 minutes, trypan blue", "value": 100, "unit": "%"},
      {"measurement": "cell survival rate", "setting": "HeLa cells; HeLa, 20 μM for 30 minutes, no laser irradiation, trypan blue", "value": 92, "unit": "%"},
      {"measurement": "production of reactive oxygen radicals (photodynamic effect)", "setting": "[1]", "value": "does not produce reactive oxygen radicals (ROS)"},
      {"measurement": "photoacoustic signal against concentration", "setting": "[2]", "value": "the photoacoustic signal increased with the increase of the concentration of Compound II-1"},
      {"measurement": "wavelength of the strongest photoacoustic signal", "setting": "[2]", "value": "710-750 nm"},
      {"measurement": "time at which a clear photoacoustic signal was found at the tumor site", "setting": "4T1 cells [3]", "value": 4, "unit": "h"},
      {"measurement": "time until which there was a photoacoustic signal at the tumor site", "setting": "4T1 cells [3]", "value": 24, "unit": "h"},
      {"measurement": "temperature raised by, every time in 5 repeated irradiations", "setting": "[4]", "value": 25, "unit": "°C"},
      {"measurement": "temperature reached every time in 5 repeated irradiations", "setting": "[4]", "value": "at least 55 °C"},
      {"measurement": "temperature of tumor site under laser irradiation", "setting": "4T1 cells [5]; 200 μL (300 μmoL) tail vein, 808 nm laser 10 minutes", "value": 60, "unit": "°C"},
      {"measurement": "day on which the tumor ulcer had completely healed", "setting": "4T1 cells [5]; [7]", "value": 16, "unit": "days"},
      {"measurement": "tumor after photothermal treatment", "setting": "4T1 cells [5]; [7]", "value": "the tumor disappeared after laser irradiation, and there was no recurrence within 20 days"},
      {"measurement": "body weight", "setting": "4T1 cells [5]; experimental group and control group", "value": "no abnormal change in the body weight"},
      {"measurement": "H&E staining of lung and liver", "setting": "4T1 cells [5]; [8]", "value": "no obvious damage to the lungs and liver"},
      {"measurement": "H&E staining of tumor", "setting": "4T1 cells [5]; [8]", "value": "the tumor cells had undergone apoptosis"},
      {"measurement": "growth of tumor volume", "setting": "4T1 cells [5]; group 2: 200 μL (300 μmol), no laser irradiation (stated for control groups 2, 3 and 4 together), in 20 days", "value": 25, "unit": "times"},
      {"measurement": "scars at the sentinel lymph nodes over time", "setting": "T4 cells; intratumoral injection + laser", "value": "obviously healed"},
      {"measurement": "tumor metastasis in the lungs, ink staining", "setting": "T4 cells; intratumoral injection + laser", "value": "no obvious tumor metastasis"},
      {"measurement": "temperature at sentinel lymph nodes under laser", "setting": "T4 cells; intratumoral injection", "value": "significantly higher than that in the saline injection group"},
      {"measurement": "entry into the sentinel lymph node, fluorescence", "setting": "T4 cells; intratumoral injection, detection every 1 hour for 5 hours", "value": "can obviously enter the sentinel lymph node of mice"},
      {"measurement": "day on which mice died (first)", "setting": "T4 cells; tail vein injection + laser", "value": 15, "unit": "days"},
      {"measurement": "scars at the sentinel lymph nodes over time", "setting": "T4 cells; tail vein injection + laser", "value": "showed a tendency to heal"},
      {"measurement": "tumor metastasis in the lungs, ink staining", "setting": "T4 cells; tail vein injection + laser", "value": "obvious tumor metastasis"},
      {"measurement": "temperature at sentinel lymph nodes under laser", "setting": "T4 cells; tail vein injection", "value": "significantly higher than that in the saline injection group"},
      {"measurement": "body weight", "setting": "[6]; intratumoral injection + laser", "value": "stable in a healthy state"},
      {"measurement": "body weight", "setting": "[6]; tail vein injection + laser", "value": "decreased on the tenth day"}
    ]}
  ]
}
